We go through 28 molecules from PubChem BioAssay (NCI).

“And” between values parts separate entries of the source, which are not always exact repeats. Identical values can stand only once.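 Cultured in 96-well plates, cells were exposed to test compound for 48 hours across five concentrations. The concentration for 50% growth inhibition is given as GI50. TGI is the concentration that stops growth completely.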 Square brackets hold non-standard residues; d marks the D form. Peptide text beside a SMILES is read from it. Phe(4-NO2) = N[CH](Cc1ccc([N+](=O)[O-])cc1)C(=O)O

What is called TGI is the concentration at which net growth stops. A low value points to more potent growth arrest. By GI50 is commonly meant the concentration giving 50% growth inhibition.

Assay in all cases: DTP human tumour cell line panel, 48 h
The test system of assay [1] is UO-31 renal.
For assay [2], the system named is K-562 leukemia.
The test system of assay [3] is UACC-257 melanoma.
In assay [4] the test system is SK-MEL-28 melanoma.
The test system of assay [5] is HL-60(TB) leukemia.
Assay [6] has as its system CAKI-1 renal.
Assay [7] deals with NCI-H226 lung.
The test system of assay [8] is M14 melanoma.
Assay [9] deals with EKVX NSCLC.
Assay [10] relates to BT-549 breast.

In the case of `CCN(CCCl)c1cc(CN(C)C)cc(NC(=O)c2ccc(C(=O)Nc3ccccc3)cc2)c1`, the TGI came to 4.4 µM in [1]; 8.31 µM in assay [2]; 3.27 µM in assay [3]; 4.36 µM in [4]; 0.695 µM in [5]; 3.69 µM in assay [6]. Also, the values for the TGI in assay [7] and in [8] were 5.92 µM and 5.44 µM, respectively.
On to `C(#C[C@@]12CCC[C@@H]1N(Cc1ccccc1)CO2)c1ccc2c(c1)OCO2`, for which the concentration for total growth inhibition (TGI) in [1], in assay [2], in assay [9], in [3], in [4] and in assay [6] was greater than 100 µM in each case. In addition, the TGI in assay [7], in [8] and in assay [10] was greater than 100 µM each time.
As to `CC(C)(C)C(=O)CC(=O)C(F)(F)C(F)(F)C(F)(F)F.[Ag]`, the concentration for total growth inhibition (TGI) in assay [1] turned out to be 60.4 µM; in assay [2] it was 65.8 µM; in assay [9] it was 55.3 µM; in assay [3], 30.1 µM; in assay [4], 28.3 µM; in assay [5], 40.8 µM. Moreover, the TGI in [6] came to 27.8 µM; in assay [7] it was 60.2 µM; in assay [8], 31.1 µM.
As for `COc1ccc2c(c1)C=C(C(C)(C)C)NS2(=O)=O`, the TGI in assay [1], in assay [2], in assay [9], in assay [3], in assay [4] and in assay [5] was greater than 100 µM throughout. Besides, the TGI in assay [6], in [7] and in assay [8] was greater than 100 µM throughout.
Regarding `CC(c1ccccc1)C(O)S(=O)(=O)O` (configuration not stated), the TGI in assay [1], in assay [9], in [3], in assay [4], in assay [7] and in [8] was greater than 100 µM each time.
In the case of `COc1cc(OC2OC(CO)C(O)C(O)C2O)c2c(c1)O[C@@H]1[C@H](O)Oc3cc(OC)c(OC)cc3[C@]1(O)C2=O` (some centres not stated), the TGI in assay [1], in assay [2], in assay [9], in [3], in assay [4] and in assay [5] was greater than 25 µM throughout. In addition, the TGI in assay [6], in [7] and in assay [8] was greater than 25 µM throughout.
For the molecule `CCOC(=O)/C=C/c1c[nH]c(=O)[nH]c1=O`, the TGI in assay [1], in [2], in assay [9], in assay [3], in assay [4] and in assay [5] was greater than 75 µM in each case. Besides, the TGI in assay [6] and in [7] was greater than 75 µM throughout.
`COc1cc(OC)cc(C(=O)Cc2c(C(=O)c3ccccc3)c3ccccc3n2C(=O)c2ccccc2)c1`: the TGI in [1], in assay [2], in assay [9], in assay [4], in assay [5] and in assay [6] was greater than 100 µM in each case. In addition, the TGI in assay [7] and in assay [8] was greater than 100 µM in each case.
Regarding `Cn1c(O)c(C=Nc2ccc(Cl)cc2Cl)c(=O)n(C)c1=O`, the total growth inhibition concentration (TGI) in assay [1], in assay [2], in [9], in assay [3], in assay [6] and in [7] was greater than 100 µM in each case. The TGI in assay [8] and in [10] was greater than 100 µM each time.
`CC(C)C1=CC23CCC4C(C)(C(=O)O)CCCC4(C)C2CC1C1C(=O)N(c2cccc(N4C(=O)C5C6CC7C8(C)CCCC(C)(C(=O)O)C8CCC7(C=C6C(C)C)C5C4=O)c2)C(=O)C13` (configuration not stated): the TGI in assay [1] is 29.1 µM; in assay [2] it was 96.1 µM; in assay [9], 24.4 µM; in [4], 21.6 µM; in [5] it was 30.7 µM; in assay [7], 32.5 µM. In [8], the TGI worked out at 25.5 µM.
As for `C/C(=N\Nc1nc2ccccc2o1)c1cc2ccccc2cn1`, the TGI was found to be 0.271 µM in assay [1]; 1.25 µM in assay [9]; 48.6 µM in assay [4]; 11.1 µM in assay [6]; 3.23 µM in [10].
Take `NS(=O)(=O)c1ccc(N2C(=O)C(=O)N(c3ccccc3)C2=S)cc1`: the total growth inhibition concentration (TGI) in assay [1], in assay [2], in [9], in assay [3], in assay [4] and in [5] was greater than 100 µM throughout. Also, the TGI in assay [6] and in assay [7] was greater than 100 µM each time.
For `N[C@@H](Cc1ccc2oc3cc(=O)c4ccccc4c-3nc2c1)C(=O)O`, the TGI was greater than 100 µM in assay [1]; greater than 100 µM in [2]; greater than 100 µM in assay [9]; 42.3 µM in [3]; greater than 100 µM in assay [4]; greater than 100 µM in [5]. In addition, the concentration for total growth inhibition (TGI) is greater than 100 µM in assay [6], greater than 100 µM in [7] and 40.9 µM in assay [8].
In the case of `COc1ccc(S(=O)(=O)Nc2ccc(-c3csc(N4C(=O)/C(=C/c5cccs5)N=C4c4ccccc4)n3)cc2)cc1Cl`, the TGI in assay [1] was 86.3 µM; in assay [2], greater than 100 µM; in assay [3] it was greater than 100 µM; in assay [4] it was greater than 100 µM; in assay [5] it was 87.4 µM; in assay [6], greater than 100 µM. For the same molecule, the TGI in assay [7] and in assay [8] was greater than 100 µM in each case.
Turning to `COc1ccc(/C=C2/SC(c3c(O)ccc4ccccc34)N(NC(=O)CCCCCCCCC(=O)NN3C(=O)/C(=C\c4ccc(OC)c(OC)c4)SC3c3c(O)ccc4ccccc34)C2=O)cc1OC` (configuration not stated), the TGI is 17 µM in [2]; greater than 100 µM in [9]; greater than 28.5 µM in assay [3]; greater than 100 µM in [4]; greater than 100 µM in assay [6]; 15.9 µM in assay [7]. The molecule further registered a TGI in [10] greater than 100 µM.
Consider `COC(=O)CCC(NC(=O)C(CCC(=O)OC)NC(=O)C(CCC(=O)OC)NC(=O)C(CCC(=O)OC)NC(=O)C(CCC(=O)OC)NC(=O)C(Cc1ccc([N+](=O)[O-])cc1)NC(=O)C(CCC(=O)OC)NC(=O)C(CCC(=O)OC)NC(=O)C(CCC(=O)OC)NC(=O)C(CCC(=O)OC)NC(=O)C(CCC(=O)OC)NC(C)=O)C(N)=O` (configuration not stated) (Ac-E(OMe)E(OMe)E(OMe)E(OMe)E(OMe)[Phe(4-NO2)]E(OMe)E(OMe)E(OMe)E(OMe)E(OMe)-NH2; configuration not given here), for which the TGI in assay [1], in assay [9], in assay [3], in assay [4], in [6] and in assay [8] was greater than 100 µM throughout.
With `Nc1ncnc2c1cnn2COCC(O)CO` (configuration not stated), the TGI in assay [1], in assay [2], in assay [9], in assay [3], in assay [4] and in [6] was greater than 100 µM throughout. Besides, the TGI in assay [7], in assay [8] and in assay [10] was greater than 100 µM in each case.
Consider `CCOC(=O)C1=C(C)N(C2OC(COC(C)=O)C(OC(C)=O)C(OC(C)=O)C2OC(C)=O)C(=O)NC1c1ccccc1` (configuration not stated), for which the TGI in assay [1], in assay [2], in [9], in [3], in assay [4] and in assay [5] was greater than 100 µM each time. Also, the TGI in assay [6], in assay [7] and in [8] was greater than 100 µM each time.
For `CC(C)C[C@H](NC(=O)CCc1cccc2ccccc12)B(O)O`, the TGI in assay [1] came to 8.73 µM; in assay [2] it was 21.4 µM; in assay [9], 64.2 µM; in [3] it was 3.91 µM; in assay [4] it was 4.05 µM; in [6] it was 3.94 µM. Besides, the figures for the TGI in assay [7], in assay [8] and in assay [10] were 0.392 µM, 3.72 µM and 2.15 µM, respectively.
For `CC1=CC(=O)/C(=C/N2C(=O)CNC2=S)C(=O)O1`, the TGI in assay [1], in assay [9], in [3], in assay [4], in [5] and in assay [6] was greater than 100 µM throughout. The TGI in assay [7] and in assay [8] was greater than 100 µM throughout.
Turning to `O=C1/C(=C\c2cccc(Oc3ccccc3)c2)SC(c2ccccc2)N1c1cccc(Cl)c1` (configuration not stated), the TGI in assay [1], in [2], in assay [9], in assay [3], in [4] and in assay [6] was greater than 100 µM each time. The TGI in assay [7], in [8] and in assay [10] was greater than 100 µM each time.
On to `CCCCCCCCCC[N+](C)(C)C`, for which the GI50 in assay [1] was 4.91 µM; in [2], 1.82 µM; in assay [9], 3.66 µM; in [3], 2.3 µM; in assay [4] it was 3.07 µM; in assay [5] it was 0.874 µM. Besides, the GI50 is 2.52 µM in assay [6], 2.37 µM in [7] and 1.74 µM in assay [8]. Further, the TGI in assay [1] was found to be 20 µM; in assay [2], 7.82 µM; in assay [9], 30.5 µM; in [3], 7.07 µM; in [4], 12.2 µM; in assay [5], 2.59 µM. Further, the total growth inhibition concentration (TGI) in assay [6] was 15.3 µM; in assay [7], 8.97 µM; in assay [8], 5.83 µM.
Regarding `O=C(N[C@@H](Cc1ccccc1)B(O)O)[C@H](Cc1cccc2ccccc12)NC(=O)N1CCOCC1`, the 50% growth inhibitory concentration (GI50) is 0.123 µM in assay [1], 0.129 µM in [9] and 0.0228 µM in assay [6]. In addition, the TGI is 0.482 µM in assay [1]; 0.0852 µM in assay [2]; 0.923 µM and 3.66 µM in assay [9]; 0.0065 µM and 0.0397 µM in assay [3]; 0.00367 µM in [4]; 0.048 µM and 0.18 µM in [6]. The figures for the TGI in assay [7], in assay [8] and in [10] were 0.00164 µM, 0.00405 µM and 0.00335 µM, respectively.
As for `C=COC(=O)N1C2CCCC(Cl)(C(C)=O)C1CC2` (configuration not stated), the TGI in [1], in assay [2], in assay [9], in [3], in assay [4] and in assay [6] was greater than 100 µM in each case. For the same molecule, the concentration for total growth inhibition (TGI) in assay [7], in [8] and in assay [10] was greater than 100 µM in each case.
`CCOC1=NC(C(F)(F)F)(C(F)(F)F)N=C(N2CCCCC2)O1`: the TGI in assay [1], in assay [2], in assay [9], in assay [3], in [4] and in assay [5] was greater than 100 µM each time. Also, the TGI in assay [6], in assay [7] and in assay [8] was greater than 100 µM throughout.
With `CCOc1cc(/C=C2\N=C(c3ccccc3)N(c3nc4ccccc4s3)C2=O)ccc1O`, the TGI is greater than 100 µM in [1]; greater than 100 µM in assay [2]; greater than 100 µM in [9]; greater than 100 µM in assay [3]; greater than 100 µM in assay [4]; 73.9 µM in assay [5]. Besides, the TGI in assay [6], in assay [7] and in assay [8] was greater than 100 µM each time.
On to `COc1ccc(NC(=O)CC(=O)N2N=C(C)C(N=Nc3ccc(C(=O)O)cc3)C2=O)cc1` (configuration not stated), for which the TGI in assay [1], in [2], in assay [9], in [3], in assay [4] and in assay [5] was greater than 100 µM each time. The TGI in assay [6] and in [8] was greater than 100 µM each time.
For `C[C@H](CO)C1=CC(C#C[Si](C)(C)C)N(C(=O)Oc2ccccc2)c2ccccc21` (some centres not stated), the TGI in [1] is 21.4 µM; in assay [2], greater than 100 µM; in assay [9], 29.1 µM; in [3], 28.3 µM; in assay [4], 37.5 µM; in assay [5], 47.2 µM. Besides, the TGI in assay [6] was 28.7 µM; in assay [7], 34.6 µM; in assay [8] it was 22 µM.
